# “And” between values parts separate entries of the source, which are not always exact repeats. Identical values can stand only once.
# Tests used:
# [1] = test system: patients with PD and constipation; details: in vivo
# Experimental: In Stage 1, ten (10) PD patients received a single escalating dose of squalamine (ENT-01) every 3-7 days beginning at 25 mg and continuing up to 200 mg or the limit of tolerability, followed by 2-weeks of wash-out. Duration of this part of the trial was 22-57 days. The 10 subjects in the sentinel group were assigned to Cohort 1 and participated in 8 single dosing periods. Tolerability limits included diarrhea or vomiting.
# Each dose period was staggered, so that subjects 1-2 were administered a single dose of the drug at the lowest dose of 25 mg. Once 24 hours have elapsed, and provided there are no safety concerns, the patient was sent home and brought back on day 4-8 for the next dose. During the days the subjects are home, they completed the daily diaries and e-mailed them to the study coordinators. Subjects 3-10 were dosed after the first 2 subjects have been observed for 72 hours, i.e. on Day 4. Subjects 1-2 were also brought back on Day 4-8 and given a single dose of 50 mg. Once another 24 hours have elapsed and provided there are no safety concerns, the patients were all sent home and instructed to return on Day 7 for the next dosing level. This single dosing regimen was continued until each subject was given a single dose of 200 mg or has reached a dose limiting toxicity (DLT). DLT was the dose which induces repeated vomiting, diarrhea, abdominal pain or symptomatic postural hypotension within 24 hours of dosing.
# Adverse events were coded using the current version of MedDRA. Severity of AEs were assessed by investigators according to CTCAE (v4.03): Grade 1 is labeled as Mild, Grade 2 as Moderate, and Grade 3 and above as Severe. […] The number (percentage) of subjects who experienced an AE during escalation and fixed dosing periods were summarized by dose level and overall for each stage. The denominator for calculating the percentages were based on the number of subjects ever exposed to each dose and overall.
# [2] = Preclinical oral studies in dogs (bioavailability, tolerability)
# Solubility in water = type: physicochemical
# [3] = test system: colons from WT (1 yr old FVB/NJ) mice; assay: Isolated colon motility, WT mice; design: species or system mouse
# Excerpt: FIGS. 14A-14B show additional effects of squalamine in mice.
# Parkinson's disease is associated with varying degrees of constipation, typically beginning decades before diagnosis, and all too often has a profound negative impact on quality of life. It is believed that the ENS in PD is damaged earlier but by the same processes that damage the neurons of the CNS. In our clinical experience oral administration to several individuals with advanced Parkinson's disease corrected long standing constipation within days of initiation of treatment. We explored whether the human experience could be reproduced in the mouse. In the experiments illustrated below studies of colonic motility were conducted using organs from WT (1 yr old FVB/NJ) or PD mice, in which the murine αSynuclein gene has been excised and replaced by several copies of the human αSynuclein gene driven by the normal murine promoter.
# The isolated colon from the PD strain presents a more sluggish peristaltic wave than that from the WT animal (black columns).
# [4] = test system: single IPAN of the myenteric plexus; assay: IPAN electrophysiology, jejunum with luminal epithelium stripped; design: species or system mouse; details: squalamine applied directly onto the myenteric plexus
# Experimental: Intrinsic primary afferent neurons (IPANs) are believed to be normally stimulated indirectly, through release of neurotransmitters from the epithelium. Since squalamine can be readily transported across an intact intestinal epithelial layer, and can enter a neuron, altering the surface potential of its plasma membrane, an experiment was designed to determine whether the effects of squalamine on the IPAN required the presence of the luminal epithelium.
# Jejunum was prepared as described in the previous experiment, except the luminal epithelium was manually stripped off the organ using forceps. Squalamine was applied directly onto the myenteric plexus from the luminal surface. Electrophysiological studies were repeated to monitor the activity of a single IPAN within the area of the release of compound. Within 5 seconds the IPAN began a series of spontaneous discharges (FIG. 13A). […] Squalamine appears to be capable of communicating directly with the ENS, in contrast to most substances that communicate with the ENS only indirectly, via their effects on the epithelium.
# [5] = test system: patient with sleeping disorder; assay: Example 2: patient with sleeping disorder and constipation, oral squalamine, sleep diary and I-button; type: in vivo, human
# Experimental: The patient had very significant delay in sleep onset, fragmented sleep, thrashing of arms and legs (RBD) and daytime somnolence. On polysomnography, they had apneic spells up to 17 seconds in duration with an oxygen desaturation as low as 93%. The patient slept no more than 3-4 hours, awakened 3-4 times, and each awakening lasted 30-60 minutes. Medications included clonazepam and laxatives.
# Clonazepam and laxatives were discontinued and they were started on 100 mg of squalamine every other day at bedtime. This regimen had no effect on their sleep or constipation. […] They were then switched to 150 mg daily taken in the morning.
# The patient's skin temperature was also monitored for fluctuations at the wrist using a temperature sensor (I-button) mounted on a wrist-band. Skin temperature at the wrist increases from about 30° C. during the day to 36° C. at night in normal individuals. This diurnal variation of skin temperature correlates well with sleep-wake cycles. When it reaches 34° C., subjects fall asleep; during the night, if it falls below 34° C., subjects awaken. During the day, skin temperature is below 30° C. and subjects remain awake.
# Once the patient's Circadian rhythm was restored, the patient started sleeping better at night and stopped falling asleep during the day.
# [6] = Duration of the aminosterol-induced response after a single oral dose; type: in vivo, human; details: single 200 mg oral dose
# Excerpt: The invention is also based on the discovery of unexpected and unprecedented activity of orally or nasally administered squalamine and related aminosterols (e.g., aminosterol 1436). The activity relates to stimulating a sequence of events within the human GI tract with therapeutic value. With respect to this activity, the sequence of events stimulated by an aminosterol such as squalamine or aminosterol 1436 involves the induction of an intestinal secretory response followed by a period of “small intestinal quieting,” and the subsequent passage of a normally formed bowel movement. These events are best explained as a consequence of the stimulation of a heretofore unknown physiological gastrointestinal response, in this invention shown to be controlled or initiated by an effective oral dose of an aminosterol such as squalamine or the related aminosterol, 1436 (Aminosterol-Induced GI Response). The activity relates to stimulating the neural connections between the enteric nervous system and the brain with therapeutic value, which can thereby impact sleeping disorders, sleeping disturbances, or related symptoms, as described herein. With respect to this activity, the sequence of events stimulated by an aminosterol involves the entrainment of the circadian clock, the suprachiasmatic nucleus, and an improvement in the quality of sleep. […]
# [7] = 150 mg daily taken in the morning
smiles,measurement,setting,value
"CC(C)[C@@H](CC[C@@H](C)[C@H]1CC[C@H]2[C@@H]3[C@H](O)C[C@H]4C[C@@H](NCCCNCCCCN)CC[C@]4(C)[C@H]3CC[C@]12C)OS(=O)(=O)O (single isomer, unassigned; ent-01) [ENT-01]","Eye infection, Moderate",[1],"0 n, %"
same,tolerability,[2],well tolerated
same,oral bioavailability,[2]; preclinical studies,about 0.1%
same,solubility in water,Solubility in water; neutral pH,weakly soluble
same,solubility in water,Solubility in water; pH<3.5 (the pH of gastric fluid),readily dissolves
CC(C)[C@@H](CC[C@@H](C)[C@H]1CC[C@H]2[C@@H]3[C@H](O)C[C@H]4C[C@@H](NCCCNCCCCN)CC[C@]4(C)[C@H]3CC[C@]12C)OS(=O)(=O)O [squalamine],speed of the colonic peristaltic wave,"[3]; WT colon, FIG. 14B",stimulates the speed of the colonic peristaltic wave
same,force of peristaltic contractions,"[3]; WT colon, squalamine added to lumen, FIG. 14A",increases the force of contractions
same,colon migrating motor complex (MMC) peak pressure waves,"[3]; intraluminal application, legend of FIG. 14A",no apparent effect
same,MMC propagation velocity from oral to anal,"[3]; intraluminal application, legend of FIG. 14B",increased
same,time to onset of spontaneous discharges of the IPAN,[4],≤ 5 s
same,effect on sleep or constipation,[5]; 100 mg every other day at bedtime,no effect
same,time to fall asleep (I-button),"[5]; 100 mg given at night, FIG. 8A",2.5 h
same,total sleep per night (I-button),"[5]; 100 mg given at night, FIG. 8A",3 h
same,Delay,"[5]; 125 mg switch, days 114-118",45 min
same,Fragments awake,"[5]; 125 mg switch, days 114-118",60 min
same,Total hrs sleep,"[5]; 125 mg switch, days 114-118",7.5 h and 6.5 h and 8.0 h
same,total hours of sleep (I-button),[5]; 150 mg,4 to 5 h
same,Total hrs sleep,"[5]; 150 mg daily am dose, Mean row covers all on-treatment days (pre mean 6.2)",6.0 h
same,Fragments awake,"[5]; 150 mg daily am dose, Mean row covers all on-treatment days (pre mean 90)",120 min
same,effect on sleep or constipation,[5]; 150 mg daily at bedtime,without effect
same,arms and legs thrashing in the night,[5]; [7],stopped thrashing
same,bowels,[5]; [7],regularized almost immediately
same,delay in sleep onset (I-button),"[5]; 150 mg, FIG. 8C",1 h
same,delay in sleep onset (I-button),"[5]; 150 mg, FIG. 8D",0.5 h
same,Sleep efficiency,[5]; On treatment (Pre-treatment 74),82%
same,Fragments awake during night,[5]; On treatment (Pre-treatment 90),56 min
same,Delay in falling asleep,[5]; On treatment (Pre-treatment 146),60 min
same,"diurnal rhythm (I-button, periodogram, FIG. 12)",[5]; several months into treatment,clearly been restored
same,duration of the aminosterol-induced response,[6],about 4 days
